# US7354588B1, “Functional derivatives of ICAM-1 with altered ability to bind LFA-1 or HRV” (Dana Farber Cancer Institute, priority 1987, dated 2008)
# *1 amine or outer side, *2 acyl side, *3 side chain or, on linkers, in order; H or OH if unused. Where a SMILES comes first, the peptide text is derived from it. Bridges are numbered along the chain shown (N, C = ends). Roman numbers before positions name the chains, in order. [ ]: non-standard residue; d: D form. Actinocin(9to1) = Cc1c2oc3c(C)ccc(C(=O)[*:1])c3nc-2c(C(=O)[*:2])c(N)c1=O; NMeV = CN[C@H](C(=O)O)C(C)C; Sar = CNCC(=O)O
# B1: rIL-1 alpha: recombinant IL-1 alpha (protein, UniProt P01583 113-271, looked up)
# Interleukin-1 alpha: SAPFSFLSNVKYNFMRIIKYEFILNDALNQSIIRANDQYLTAAALHNLDEAVKFDMGAYKSSKDDAKITVILRISKTQLYVTAQDEDQPVLLKEMPEIPKTITGSETNLLFFWETHGTKNYFTSVAHPNLFIATKQDYWVCLAGGPPSITDFQILENQA
# Columns and labels:
# [1] = test system: human peripheral blood mononuclear cells (responder and irradiated stimulator cells); assay: Mixed lymphocyte reaction (MLR), ^3HT incorporation; type: cell-based; conditions: Table 19, R × S, R6-5-D6 8 ng/ml, Dex 50 ng/ml
# [2] = test system: ICAM-1 expression on human dermal fibroblasts; assay: ^125I goat anti-mouse IgG binding assay, anti-ICAM-1, dermal fibroblasts; type: cell-based
# Description: (§1) The kinetics of interleukin 1 and gamma interferon effects on ICAM-1 expression on dermal fibroblasts were determined using the ^125I goat anti-mouse IgG binding assay of Dustin, M. L. et al. (J. Immunol. 137:245-254 (1986); which reference is herein incorporated by reference). To perform this binding assay, human dermal fibroblasts were grown in a 96-well microtiter plate to a density of 2−8×10^4 cells/well (0.32 cm^2). The cells were washed twice with RPMI 1640 medium supplemented as described in Example 1. The cells were additionally washed once with Hanks Balanced Salt Solution (HBSS), 10 mM HEPES, 0.05% NaN3 and 10% heat-inactivated fetal bovine serum. Washing with this binding buffer was done at 4° C. To each well was added 50 μl of the above-described binding buffer and 50 μl of the appropriate hybridoma supernatant with X63 and W6/32 as the negative and positive controls, respectively. After incubation for 30 minutes at 4° C., with gentle agitation, the wells were washed twice with binding buffer, and the second antibody ^125I-goat anti-mouse IgG, was added at 50 nCi in 100 μl. The ^125I-goat anti-mouse antibody was prepared by using Iodogen (Pierce) according to the method of Fraker, P. J. et al. (Biochem. Biophys. Res. Commun. 80:849 (1978)). After 30 minutes at 4° C., the wells were washed twice with 200 μl of binding buffer and the cell layer was solubilized by adding 100 μl of 0.1 N NaOH. This and a 100 μl wash were counted in a Beckman 5500 gamma counter. The specific counts per minute bound was calculated as [cpm with monoclonal antibody]-[cpm with X63]. All steps, including induction with specific reagents, were carried out in quadruplicate.
# [3] = test system: JY cells (LFA-1 dependent aggregation); assay: Qualitative aggregation assay (microtiter plate), PMA-induced JY cell aggregation; type: cell-based, human
# Description: In order to assess the extent of cellular adhesion, aggregation assays were employed. Cell lines used in such assays were washed two times with RPMI 1640 medium containing 5 mM Hepes buffer (Sigma Chemical Co., St. Louis) and resuspended to a concentration of 2×10^6 cells/ml. Added to flat-bottomed, 96-well microtiter plates (No. 3596; Costar, Cambridge, Mass.) were 50 μl of appropriate monoclonal antibody supernatant or 50 μl of complete medium with or without purified monoclonal antibodies, 50 μl of complete medium containing 200 ng/ml of the phorbol ester phorbol myristate acetate (PMA) and 100 μl of cells at a concentration of 2×10^6 cells/ml in complete medium. This yielded a final concentration of 50 ng/ml PMA and 2×10^5 cells/well. Cells were allowed to settle spontaneously, and the degree of aggregation was scored at various time points. […] In order to obtain a more quantitative estimate of cellular adhesion, reagents and cells were added to 5 ml polystyrene tubes in the same order as above. Tubes were placed in a rack on a gyratory shaker at 37° C. After 1 hour at approximately 200 rpm, 10 μl of the cell suspension was placed in a hemocytometer and the number of free cells was quantitated. Percent aggregation was determined by the following equation: […]
# The qualitative aggregation assay described in Example 2 was performed using the Epstein-Barr transformed cell line JY. […]
# ICAM-1-LFA-1 adhesion = ICAM-1-LFA-1 adhesion (Homo sapiens, UniProt P05107+P05362+P20701); conditions: peptides; cited from earlier work
# [4] = test system: HLA-A,B,C expression on human dermal fibroblasts; assay: ^125I goat anti-mouse IgG binding assay, anti-HLA-A,B,C, dermal fibroblasts; type: cell-based
# Description: as §1
# [5] = test system: ICAM-1 expression on human umbilical vein endothelial cells (HUVEC); assay: Radioimmune assay of ICAM-1 expression with ^125I RR1/1, HUVEC; type: cell-based; conditions: for ^125I Specifically bound (CPM), HUVEC / fold of control ICAM-1 expression, HUVEC: 16 hr; for ^125I Specifically bound (CPM), HUVEC: rIL-1 beta 100 ng/ml, rIL-1 alpha 50 ng/ml, rTNF alpha 50 ng/ml, LPS 10 μg/ml, rIFN gamma 10 ng/ml, polymyxin B 10 μg/ml, control 603 ± 11; for fold of control ICAM-1 expression, HUVEC: same concentrations as CPM; for increase of ICAM-1 expression on HUVEC: IL-1 beta 100 ng/ml, rTNF 50 ng/ml, Interferon-gamma 10,000 U/ml
# Description: (§2) In order to measure ICAM-1 expression, a radioimmune assay was developed. In this assay, purified RR1/1 was iodinated using iodogen to a specific activity of 10 μCi/μg. Endothelial cells were grown in 96 well plates and treated as described for each experiment. The plates were cooled at 4° C. by placing in a cold room for 0.5-1 hr, not immediately on ice. The monolayers were washed 3× with cold complete media and then incubated 30 m at 4° C. with ^125I RR1/1. The monolayers were then washed 3× with complete media. The bound 125, was released using 0.1 N NaOH and counted. The specific activity of the ^125I RR1/1 was adjusted using unlabeled RR1/1 to obtain a linear signal over the range of antigen densities encountered in this study. Non-specific binding was determined in the presence of a thousand fold excess of unlabeled RR1/1 and was subtracted from total binding to yield the specific binding.
# (§3) Upregulation of ICAM-1 expression on HVEC and HSVEC-HUVEC or HSVEC were seeded into 96 well plates at 1:3 from a confluent monolayer and allowed to grow to confluence. Cells were then treated with the indicated materials or media for 16 hr and the RIA done as in methods. All points were done in quadruplicate.
# [6] = test system: ICAM-1 expression on human saphenous vein endothelial cells (HSVEC); assay: Radioimmune assay of ICAM-1 expression with ^125I RR1/1, HSVEC; type: cell-based; conditions: for ^125I Specifically bound (CPM), HSVEC / fold of control ICAM-1 expression, HSVEC: 16 hr; for ^125I Specifically bound (CPM), HSVEC: rIL-1 beta 100 ng/ml, rTNF alpha 50 ng/ml, LPS 10 μg/ml, rIFN gamma 10 ng/ml, control 1132 ± 31; for fold of control ICAM-1 expression, HSVEC: same concentrations as CPM; for increase of ICAM-1 expression on HSVEC: IL-1 beta 100 ng/ml, rTNF 50 ng/ml, Interferon-gamma 10,000 U/ml
# Description: as §2, §3
# [7] = cycloheximide 20 μg/ml, actinomycin D 10 μM
# [8] = cells treated with IFN-γ (10 U/ml) (18 hr), alone or plus the inhibitor named (cycloheximide 20 μg/ml, actinomycin D 10 μM)
# [9] = cells treated with IFN-γ (10 U/ml) (18 hr), alone or plus the inhibitor named
# Chain of ICAM-1-LFA-1 adhesion (P05362 28-532): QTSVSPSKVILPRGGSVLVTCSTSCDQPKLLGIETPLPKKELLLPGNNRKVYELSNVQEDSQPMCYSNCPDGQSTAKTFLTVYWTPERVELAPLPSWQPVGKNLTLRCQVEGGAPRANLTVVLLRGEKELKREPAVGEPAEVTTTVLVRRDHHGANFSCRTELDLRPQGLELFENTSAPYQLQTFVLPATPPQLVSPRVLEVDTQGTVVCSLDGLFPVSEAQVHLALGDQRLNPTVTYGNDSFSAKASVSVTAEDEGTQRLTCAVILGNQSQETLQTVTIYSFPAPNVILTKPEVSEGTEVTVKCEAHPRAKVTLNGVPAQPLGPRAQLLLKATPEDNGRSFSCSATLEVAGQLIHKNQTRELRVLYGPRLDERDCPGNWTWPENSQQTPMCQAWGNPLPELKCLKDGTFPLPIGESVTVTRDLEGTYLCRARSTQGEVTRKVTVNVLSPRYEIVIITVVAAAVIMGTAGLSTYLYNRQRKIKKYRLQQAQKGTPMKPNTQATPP
# Chain of ICAM-1-LFA-1 adhesion (P20701 26-1170): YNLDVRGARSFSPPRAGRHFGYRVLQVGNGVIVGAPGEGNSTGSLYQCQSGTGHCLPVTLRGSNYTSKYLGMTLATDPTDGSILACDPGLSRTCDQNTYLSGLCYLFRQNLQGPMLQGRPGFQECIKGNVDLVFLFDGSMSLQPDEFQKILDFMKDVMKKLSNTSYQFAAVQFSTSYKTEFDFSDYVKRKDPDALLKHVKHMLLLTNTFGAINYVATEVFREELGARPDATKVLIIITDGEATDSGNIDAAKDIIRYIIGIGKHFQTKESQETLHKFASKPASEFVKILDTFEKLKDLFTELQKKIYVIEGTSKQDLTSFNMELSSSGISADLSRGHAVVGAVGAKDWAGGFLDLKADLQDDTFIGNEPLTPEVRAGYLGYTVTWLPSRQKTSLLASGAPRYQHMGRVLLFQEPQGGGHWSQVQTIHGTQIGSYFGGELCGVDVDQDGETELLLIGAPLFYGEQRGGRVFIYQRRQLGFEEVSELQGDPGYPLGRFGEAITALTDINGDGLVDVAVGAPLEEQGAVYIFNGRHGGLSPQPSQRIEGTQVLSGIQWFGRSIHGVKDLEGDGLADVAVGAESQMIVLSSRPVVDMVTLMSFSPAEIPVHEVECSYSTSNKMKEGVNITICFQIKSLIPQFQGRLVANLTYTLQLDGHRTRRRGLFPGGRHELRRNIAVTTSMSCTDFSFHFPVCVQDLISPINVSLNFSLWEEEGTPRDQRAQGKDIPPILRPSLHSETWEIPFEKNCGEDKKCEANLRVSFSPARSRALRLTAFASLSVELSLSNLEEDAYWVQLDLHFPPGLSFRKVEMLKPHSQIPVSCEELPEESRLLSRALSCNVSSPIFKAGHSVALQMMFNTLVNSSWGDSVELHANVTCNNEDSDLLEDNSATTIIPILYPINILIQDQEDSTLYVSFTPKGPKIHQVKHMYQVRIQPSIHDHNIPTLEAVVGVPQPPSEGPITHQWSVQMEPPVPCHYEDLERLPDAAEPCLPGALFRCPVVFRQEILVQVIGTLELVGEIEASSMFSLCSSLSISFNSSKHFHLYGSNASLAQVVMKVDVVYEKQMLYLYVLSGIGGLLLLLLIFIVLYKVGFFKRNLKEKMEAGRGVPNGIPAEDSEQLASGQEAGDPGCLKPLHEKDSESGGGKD
# Chain of ICAM-1-LFA-1 adhesion (P05107 23-769): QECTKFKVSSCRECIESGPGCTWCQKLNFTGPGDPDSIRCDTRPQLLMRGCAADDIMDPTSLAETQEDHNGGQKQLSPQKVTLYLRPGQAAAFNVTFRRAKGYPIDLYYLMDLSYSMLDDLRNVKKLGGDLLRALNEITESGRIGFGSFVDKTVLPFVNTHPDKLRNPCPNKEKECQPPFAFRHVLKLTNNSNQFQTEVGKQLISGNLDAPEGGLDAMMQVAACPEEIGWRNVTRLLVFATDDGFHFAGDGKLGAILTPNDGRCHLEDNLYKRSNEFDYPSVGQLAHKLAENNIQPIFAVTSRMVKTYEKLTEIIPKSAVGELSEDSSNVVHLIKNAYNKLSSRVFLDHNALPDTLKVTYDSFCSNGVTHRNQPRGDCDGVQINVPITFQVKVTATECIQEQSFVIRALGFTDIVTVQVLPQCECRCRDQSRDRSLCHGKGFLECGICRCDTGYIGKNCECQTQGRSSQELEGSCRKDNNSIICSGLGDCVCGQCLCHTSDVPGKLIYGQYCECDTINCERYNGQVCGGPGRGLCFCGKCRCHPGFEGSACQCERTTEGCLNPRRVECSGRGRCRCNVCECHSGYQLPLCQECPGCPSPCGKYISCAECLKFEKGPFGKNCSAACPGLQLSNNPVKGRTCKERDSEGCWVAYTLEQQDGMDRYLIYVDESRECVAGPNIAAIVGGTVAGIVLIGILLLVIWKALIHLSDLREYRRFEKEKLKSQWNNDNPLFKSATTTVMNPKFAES
molecule,measurement,setting,value
"C[C@@H]1C[C@H]2[C@@H]3CCC4=CC(=O)C=C[C@]4(C)[C@@]3(F)[C@@H](O)C[C@]2(C)[C@@]1(O)C(=O)CO [Dex, Dexamethasone]",inhibition at 0.05 µg/mL,"[1]; Homo sapiens, PBMC",59%
same,^3HT Incorporation (CPM),"[1]; no inhibitor 34,199","14,158 CPM"
"Cc1c2oc3c(C)ccc(C(=O)N[C@@H]4C(=O)N[C@H](C(C)C)C(=O)N5CCC[C@H]5C(=O)N(C)CC(=O)N(C)[C@@H](C(C)C)C(=O)O[C@@H]4C)c3nc-2c(C(=O)N[C@@H]2C(=O)N[C@H](C(C)C)C(=O)N3CCC[C@H]3C(=O)N(C)CC(=O)N(C)[C@@H](C(C)C)C(=O)O[C@@H]2C)c(N)c1=O [actinomycin D] (I: T[dV]P[Sar][NMeV] / II: T[dV]P[Sar][NMeV]; ester I:1-I:C, II:1-II:C; linker I:N-II:N via Actinocin(9to1))",effect on interleukin 1 and gamma interferon induced ICAM-1 expression on fibroblasts,[2]; [7],abolish the effects
[Mg] [magnesium],lowest concentration supporting PMA-induced JY cell aggregation,[3]; 1.25 mM calcium ions added to the medium,0.02 millimolar
same,lowest concentration supporting PMA-induced JY cell aggregation,[3]; medium free of calcium ions,0.3 mM
GRGDSP,inhibition of ICAM-1-LFA-1 adhesion,ICAM-1-LFA-1 adhesion,failure
GRGESP,inhibition of ICAM-1-LFA-1 adhesion,ICAM-1-LFA-1 adhesion,failure
cycloheximide,"^125I Goat Anti-Mouse IgG Specifically Bound (cpm), anti-ICAM-1",[2]; [8],1461 ± 59 cpm
same,"^125I Goat Anti-Mouse IgG Specifically Bound (cpm), anti-ICAM-1","[2]; cells treated with IL 1 (10 U/ml) (4 hr), alone or plus the inhibitor named (cycloheximide 20 μg/ml, actinomycin D 10 μM, tunicamycin 2 μg/ml)",1619 ± 381 cpm
same,effect on interleukin 1 and gamma interferon induced ICAM-1 expression on fibroblasts,[2]; [7],abolish the effects
same,"^125I Goat Anti-Mouse IgG Specifically Bound (cpm), anti-ICAM-1","[2]; no cytokine, Control (4 hr) 1524 ± 140, cycloheximide 20 μg/ml, actinomycin D 10 μM, tunicamycin 2 μg/ml, mean ± SD",1513 ± 210 cpm
same,"^125I Goat Anti-Mouse IgG Specifically Bound (cpm), anti-HLA-A,B,C",[4]; [9],10675 ± 800 cpm
same,"^125I Goat Anti-Mouse IgG Specifically Bound (cpm), anti-HLA-A,B,C","[4]; cells treated with IL 1 (10 U/ml) (4 hr), alone or plus the inhibitor named",12676 ± 446 cpm
same,"^125I Goat Anti-Mouse IgG Specifically Bound (cpm), anti-HLA-A,B,C","[4]; no cytokine, Control (4 hr) 11928 ± 600, cycloheximide 20 μg/ml, actinomycin D 10 μM, tunicamycin 2 μg/ml, mean ± SD",10678 ± 471 cpm
rIFN gamma: recombinant gamma interferon,"^125I Specifically bound (CPM), HUVEC",[5],3120 ± 308 CPM
same,"fold of control ICAM-1 expression, HUVEC",[5],5.2x
same,increase of ICAM-1 expression on HUVEC,[5],5.2 fold
same,"^125I Goat Anti-Mouse IgG Specifically Bound (cpm), anti-ICAM-1",[2]; [8],4659 ± 109 cpm
same,half-life for ICAM-1 induction,"[2]; human dermal fibroblasts, 10 U/ml",3.75 h
same,"^125I Specifically bound (CPM), HSVEC",[6],4002 ± 664 CPM
same,"fold of control ICAM-1 expression, HSVEC",[6],3.5x
same,increase of ICAM-1 expression on HSVEC,[6],3.5 fold
same,"^125I Goat Anti-Mouse IgG Specifically Bound (cpm), anti-HLA-A,B,C",[4]; [9],23675 ± 500 cpm
rIL-1 beta: recombinant IL-1 beta,"^125I Specifically bound (CPM), HUVEC",[5],5680 ± 633 CPM
same,"fold of control ICAM-1 expression, HUVEC",[5],9x
same,increase of ICAM-1 expression on HUVEC,[5],9 fold
same,half-maximal increase of ICAM-1 expression,[5]; endothelial cells (HUVEC and HSVEC),15 ng/mL
same,"^125I Specifically bound (CPM), HSVEC",[6],8320 ± 766 CPM
same,"fold of control ICAM-1 expression, HSVEC",[6],7.3x
same,increase of ICAM-1 expression on HSVEC,[6],7.3 fold
B1,"^125I Specifically bound (CPM), HUVEC",[5],9910 ± 538 CPM
same,"fold of control ICAM-1 expression, HUVEC",[5],16x
